Results reported in patent US9096518B2, “Substituted hydroxamic acids and uses thereof” (Millennium Pharmaceuticals, Inc., priority 2009, dated 2015).

target: T1, purified human HDAC6 (Homo sapiens, UniProt Q9UBN7); assay: HDAC6 Enzyme Assay; assay type: biochemical
T1 construct: purchased BPS Bioscience 5006
T1 sequence (Q9UBN7 1-1215): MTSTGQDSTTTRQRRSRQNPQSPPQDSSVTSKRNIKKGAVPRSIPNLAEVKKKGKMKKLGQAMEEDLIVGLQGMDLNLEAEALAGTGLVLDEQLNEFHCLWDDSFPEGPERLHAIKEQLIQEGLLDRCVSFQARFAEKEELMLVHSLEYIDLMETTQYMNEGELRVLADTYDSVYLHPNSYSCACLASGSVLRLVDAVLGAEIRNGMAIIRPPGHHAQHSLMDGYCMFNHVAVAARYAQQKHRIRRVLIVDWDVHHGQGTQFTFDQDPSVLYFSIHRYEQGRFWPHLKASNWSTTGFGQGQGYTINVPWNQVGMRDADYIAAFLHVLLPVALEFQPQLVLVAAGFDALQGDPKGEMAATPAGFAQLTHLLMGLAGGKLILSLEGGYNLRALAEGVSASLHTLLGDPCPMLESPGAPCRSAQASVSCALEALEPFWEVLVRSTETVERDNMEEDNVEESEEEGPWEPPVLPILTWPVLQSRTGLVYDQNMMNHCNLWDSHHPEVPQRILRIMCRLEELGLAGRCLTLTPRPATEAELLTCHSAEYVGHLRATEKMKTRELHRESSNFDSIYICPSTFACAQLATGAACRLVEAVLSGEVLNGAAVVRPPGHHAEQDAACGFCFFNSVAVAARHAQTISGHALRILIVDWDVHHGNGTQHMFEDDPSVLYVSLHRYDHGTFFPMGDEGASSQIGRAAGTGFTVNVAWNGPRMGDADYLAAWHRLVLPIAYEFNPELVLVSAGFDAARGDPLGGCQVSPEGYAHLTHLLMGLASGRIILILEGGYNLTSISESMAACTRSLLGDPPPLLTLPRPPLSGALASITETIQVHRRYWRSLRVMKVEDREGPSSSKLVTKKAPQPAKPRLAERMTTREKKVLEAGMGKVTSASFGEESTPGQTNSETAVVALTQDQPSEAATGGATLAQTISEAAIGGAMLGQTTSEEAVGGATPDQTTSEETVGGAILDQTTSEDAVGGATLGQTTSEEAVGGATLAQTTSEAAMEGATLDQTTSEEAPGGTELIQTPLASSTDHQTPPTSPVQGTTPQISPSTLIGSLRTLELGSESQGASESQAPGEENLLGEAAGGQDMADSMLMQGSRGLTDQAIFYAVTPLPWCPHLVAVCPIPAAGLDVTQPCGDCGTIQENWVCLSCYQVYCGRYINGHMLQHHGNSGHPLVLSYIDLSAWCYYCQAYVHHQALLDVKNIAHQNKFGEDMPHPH
Protocol: To measure the inhibition of HDAC6 activity, purified human HDAC6 (BPS Bioscience; Cat. No. 5006) is incubated with substrate Ac-Arg-Gly-Lys(Ac)-AMC peptide (Bachem Biosciences; Cat. No. I-1925) for 1 hour at 30° C. in the presence of test compounds or vehicle DMSO control. The reaction is stopped with the HDAC inhibitor trichostatin A (Sigma; Cat. No. T8552) and the amount of Arg-Gly-Lys-AMC generated is quantitated by digestion with trypsin (Sigma; Cat. No. T1426) and subsequent measurement of the amount of AMC released using a fluorescent plate reader (Pherastar; BMG Technologies) set at Ex 340 nm and Em 460 nm. Concentration response curves are generated by calculating the fluorescence increase in test compound-treated samples relative to DMSO-treated controls, and enzyme inhibition (IC50) values are determined from those curves.

| Compound | IC50 |
| --- | --- |
| Cn1cccc1C(=O)N1CCc2cc(C(=O)NO)ccc2C1 [Compound 1, N-hydroxy-2-[(1-methyl-1H-pyrrol-2-yl)carbonyl]-1,2,3,4-tetrahydroisoquinoline-6-carboxamide] | < 0.05 µM |
| CC(C)(C)C(=O)N1CCc2cc(C(=O)NO)ccc2C1 [Compound 2, 2-(2,2-dimethylpropanoyl)-N-hydroxy-1,2,3,4-tetrahydroisoquinoline-6-carboxamide] | 0.05 to 0.1 µM |
| O=C(NO)c1ccc2c(c1)CCN(C(=O)Cc1ccc(C(F)(F)F)cc1)C2 [Compound 3, N-hydroxy-2-{[4-(trifluoromethyl)phenyl]acetyl}-1,2,3,4-tetrahydroisoquinoline-6-carboxamide] | 0.05 to 0.1 µM |
| O=C(NO)c1ccc2c(c1)CCN(C(=O)C1(c3ccc(Cl)cc3)CCC1)C2 [Compound 4, 2-{[1-(4-chlorophenyl)cyclobutyl]carbonyl}-N-hydroxy-1,2,3,4-tetrahydroisoquinoline-6-carboxamide] | < 0.05 µM |
| O=C(NO)c1ccc2c(c1)CCN(C(=O)C1CCCCC1)C2 [Compound 5, 2-(cyclohexylcarbonyl)-N-hydroxy-1,2,3,4-tetrahydroisoquinoline-6-carboxamide] | 0.05 to 0.1 µM |
| Cc1nc(CC(=O)N2CCc3cc(C(=O)NO)ccc3C2)cs1 [Compound 6, N-hydroxy-2-[(2-methyl-1,3-thiazol-4-yl)acetyl]-1,2,3,4-tetrahydroisoquinoline-6-carboxamide] | 0.1 to 0.5 µM |
| CC(C)CC(=O)N1CCc2cc(C(=O)NO)ccc2C1 [Compound 9, N-hydroxy-2-(3-methylbutanoyl)-1,2,3,4-tetrahydroisoquinoline-6-carboxamide] | 0.05 to 0.1 µM |
| O=C(NO)c1ccc2c(c1)CCN(C(=O)CCn1ccc3ccccc31)C2 [Compound 13, N-hydroxy-2-[3-(1H-indol-1-yl)propanoyl]-1,2,3,4-tetrahydroisoquinoline-6-carboxamide] | > 0.5 µM |
| O=C(NO)c1ccc2c(c1)CCN(C(=O)c1ccc(-n3cccc3)cc1)C2 [Compound 14, N-hydroxy-2-[4-(1H-pyrrol-1-yl)benzoyl]-1,2,3,4-tetrahydroisoquinoline-6-carboxamide] | 0.05 to 0.1 µM |
| Cc1noc(C)c1CC(=O)N1CCc2cc(C(=O)NO)ccc2C1 [Compound 16, 2-[(3,5-dimethylisoxazol-4-yl)acetyl]-N-hydroxy-1,2,3,4-tetrahydroisoquinoline-6-carboxamide] | 0.05 to 0.1 µM |
| CC(=O)N[C@H](CC(C)C)C(=O)N1CCc2cc(C(=O)NO)ccc2C1 [Compound 17, 2-[(2R)-2-(acetylamino)-4-methylpentanoyl]-N-hydroxy-1,2,3,4-tetrahydroisoquinoline-6-carboxamide] | 0.1 to 0.5 µM |
| C=CC(C)C(=O)N1CCc2cc(C(=O)NO)ccc2C1 (centres unmarked) [Compound 19, N-hydroxy-2-(2-methylbut-3-enoyl)-1,2,3,4-tetrahydroisoquinoline-6-carboxamide] | 0.05 to 0.1 µM |
| O=C(NO)c1ccc2c(c1)CCN(C(=O)C1CCCCCC1)C2 [Compound 22, 2-(cycloheptylcarbonyl)-N-hydroxy-1,2,3,4-tetrahydroisoquinoline-6-carboxamide] | 0.05 to 0.1 µM |
| CC1(C(=O)N2CCc3cc(C(=O)NO)ccc3C2)CC1 [Compound 23, N-hydroxy-2-(1-methylcyclopropanecarbonyl)-1,2,3,4-tetrahydroisoquinoline-6-carboxamide] | 0.05 to 0.1 µM |
| O=C(NO)c1ccc2c(c1)CCN(C(=O)C1CCOC1)C2 (centres unmarked) [Compound 24, N-hydroxy-2-(tetrahydrofuran-3-ylcarbonyl)-1,2,3,4-tetrahydroisoquinoline-6-carboxamide] | 0.1 to 0.5 µM |
| O=C(NO)c1ccc2c(c1)CCN(C(=O)CC1CCCC1)C2 [Compound 25, 2-(cyclopentylacetyl)-N-hydroxy-1,2,3,4-tetrahydroisoquinoline-6-carboxamide] | < 0.05 µM |
| O=C(NO)c1ccc2c(c1)CCN(C(=O)C1CC=CCC1)C2 (centres unmarked) [Compound 26, 2-(cyclohex-3-en-1-ylcarbonyl)-N-hydroxy-1,2,3,4-tetrahydroisoquinoline-6-carboxamide] | 0.1 to 0.5 µM |
| CC1(C(=O)N2CCc3cc(C(=O)NO)ccc3C2)CCCCC1 [Compound 28, N-hydroxy-2-[(1-methylcyclohexyl)carbonyl]-1,2,3,4-tetrahydroisoquinoline-6-carboxamide] | 0.1 to 0.5 µM |
| O=C(NO)c1ccc2c(c1)CCN(C(=O)Cc1ccc(-c3ccccc3)cc1)C2 [Compound 30, 2-(biphenyl-4-ylacetyl)-N-hydroxy-1,2,3,4-tetrahydroisoquinoline-6-carboxamide] | < 0.05 µM |
| Cc1cc(C)n(CC(=O)N2CCc3cc(C(=O)NO)ccc3C2)n1 [Compound 31, 2-[(3,5-dimethyl-1H-pyrazol-1-yl)acetyl]-N-hydroxy-1,2,3,4-tetrahydroisoquinoline-6-carboxamide] | 0.1 to 0.5 µM |
| O=C(NO)c1ccc2c(c1)CCN(C(=O)C1CCCC1)C2 [Compound 32, 2-(cyclopentylcarbonyl)-N-hydroxy-1,2,3,4-tetrahydroisoquinoline-6-carboxamide] | < 0.05 µM |
| O=C(NO)c1ccc2c(c1)CCN(C(=O)C13CC4CC(CC(C4)C1)C3)C2 [Compound 33, 2-[1-adamantylcarbonyl]-N-hydroxy-1,2,3,4-tetrahydroisoquinoline-6-carboxamide] | < 0.05 µM |

Now from value to molecule:

| IC50 | Compound |
| --- | --- |
| < 0.05 µM | O=C(NO)c1ccc2c(c1)CCN(C(=O)c1cnn(-c3ccccc3)c1)C2 [Compound 7, N-hydroxy-2-[(1-phenyl-1H-pyrazol-4-yl)carbonyl]-1,2,3,4-tetrahydroisoquinoline-6-carboxamide] |
| < 0.05 µM | O=C(NO)c1ccc2c(c1)CCN(C(=O)c1cc3ccccc3[nH]1)C2 [Compound 8, N-hydroxy-2-(1H-indol-2-ylcarbonyl)-1,2,3,4-tetrahydroisoquinoline-6-carboxamide] |
| 0.05 to 0.1 µM | Cc1ccc(C(C)C(=O)N2CCc3cc(C(=O)NO)ccc3C2)cc1 (centres unmarked) [Compound 10, N-hydroxy-2-[2-(4-methylphenyl)propanoyl]-1,2,3,4-tetrahydroisoquinoline-6-carboxamide] |
| 0.05 to 0.1 µM | O=C(NO)c1ccc2c(c1)CCN(C(=O)c1cccc3ccccc13)C2 [Compound 12, N-hydroxy-2-(1-naphthoyl)-1,2,3,4-tetrahydroisoquinoline-6-carboxamide] |
| 0.05 to 0.1 µM | O=C(NO)c1ccc2c(c1)CCN(C(=O)Cc1ccccc1)C2 [Compound 15, N-hydroxy-2-(phenylacetyl)-1,2,3,4-tetrahydroisoquinoline-6-carboxamide] |
| 0.05 to 0.1 µM | Cc1c(C(=O)N2CCc3cc(C(=O)NO)ccc3C2)cnn1-c1ccccc1 [Compound 18, N-hydroxy-2-[(5-methyl-1-phenyl-1H-pyrazol-4-yl)carbonyl]-1,2,3,4-tetrahydroisoquinoline-6-carboxamide] |
| 0.1 to 0.5 µM | CC(N)(Cc1ccccc1)C(=O)N1CCc2cc(C(=O)NO)ccc2C1 (centres unmarked) [Compound 20, 2-(2-amino-2-methyl-3-phenylpropanoyl)-N-hydroxy-1,2,3,4-tetrahydroisoquinoline-6-carboxamide] |
| 0.05 to 0.1 µM | O=C(NO)c1ccc2c(c1)CCN(C(=O)COc1ccccc1)C2 [Compound 21, N-hydroxy-2-(phenoxyacetyl)-1,2,3,4-tetrahydroisoquinoline-6-carboxamide] |
| < 0.05 µM | CC(C)C(C(=O)N1CCc2cc(C(=O)NO)ccc2C1)c1ccccc1 (centres unmarked) [Compound 27, N-hydroxy-2-(3-methyl-2-phenylbutanoyl)-1,2,3,4-tetrahydroisoquinoline-6-carboxamide] |
| 0.05 to 0.1 µM | C[C@H](C(=O)N1CCc2cc(C(=O)NO)ccc2C1)c1ccccc1 [Compound 29, N-hydroxy-2-[(2S)-2-phenylpropanoyl]-1,2,3,4-tetrahydroisoquinoline-6-carboxamide] |
